Source: US20260001911A1, “CYCLIC PEPTIDE COMPOUND CONTAINING PIPERAZIC ACID, METHOD OF PRODUCING SAME, AND USES OF SAME” (MolGenBio Co., Ltd., priority 2020, published 2026)
Read-outs that look alike come from different tables or passages of the source. Numbered stars: 1 amine (or outer) side, 2 acyl side, 3 side chain; on linkers, the order of the positions; unused ones are H or OH. Square brackets hold non-standard residues; d marks the D form. Peptide text beside a SMILES is read from it. NMeF = CN[CH](Cc1ccccc1)C(=O)O; X1 = O=C(C1CCCNN1[*:1])[*:2]; NMeV = CN[CH](C(=O)O)C(C)C; NMeS = CN[CH](CO)C(=O)O; NMeA = CN[CH](C)C(=O)O; βAla = NCCC(=O)O

Columns and labels:
[1] = test system: HCT116-5-FU resistant cell line; assay: SRB cell growth inhibition, 5-fluorouracil resistant HCT116-5-FU
Procedure: (§1) With Lenziamide compound prepared as in Example 1 added, the cell lines were cultured for about 72 hours. Thereafter, the resulting cell cultures were stained with sulforhodamine (SRB) that […] and washed to remove non-binding dye, and the stained cells were suspended in 10 mM of Tris (pH 10.0). The absorbance was measured at 515 nm and the cell proliferation was measured. Using TableCurve 2D v5.01 software (Systant Software Inc., Richmond, CA, USA), half maximal inhibitory concentration (IC50) value was calculated by nonlinear regression analysis method. All reagents were purchased from Sigma-Aldrich. As a positive control, etoposide was used.
In order to prepare HCT116-5-FU resistant cell line, 5-fluorouracil was treated to HCT116 cells 3 times a week, and only surviving cells were subcultured with treatment of increasing concentrations of 5-fluorouracil for 3 months. HCT116-5-FU resistant cell line was established by finally collecting and culturing only the surviving cells.

[2] = test system: colorectal cancer cell HCT116; assay: cells
Procedure: (§2) 6 types of cancer cell lines of Lung adenocarcinoma cell A549, colorectal cancer cell HCT116, breast cancer cell MDA-MB-231, liver adenocarcinoma cell SK-HEP-1, stomach adenocarcinoma cell SNU638, and chronic myeloid leukemia cell K562,and a normal cell line of pulmonary fibroblast MRC-5 were purchased from Korean Cell Line Bank (Seoul, Korea).
as §1

[3] = test system: Lung adenocarcinoma cell A549; assay: cells
Procedure: as §2, §1

[4] = test system: pulmonary fibroblast MRC-5; assay: cells
Procedure: as §2, §1

[5] = test system: stomach adenocarcinoma cell SNU638; assay: cells
Procedure: as §2, §1

[6] = test system: breast cancer cell MDA-MB-231; assay: cells
Procedure: as §2, §1

[7] = test system: liver adenocarcinoma cell SK-HEP-1; assay: cells
Procedure: as §2, §1

[8] = test system: chronic myeloid leukemia cell K562; assay: cells
Procedure: as §2, §1

[9] = test system: HCT116 cells; assay: Annexin V/propidium iodide dual-stain analysis; assay type: cell-based, human
Procedure: In order to confirm that sub G1 cell accumulation due to G2/M arrest effect of lenziamide A leads to cell apoptosis, HCT116 cells were treated with different concentrations of lenziamide A. Thereafter, cell death induction efficacy of lenziamide A was evaluated by using Annexin V/propidium iodide dual-stain analysis method which can identify cell deaths. The results of Annexin V/propidium iodide dual-stain analysis were shown in FIG. 3A, and stages of cells according to the concentration of lenziamide A were shown in FIG. 3B. The ratios (%) of live cells, early apoptosis, late apoptosis, necrosis, and total cell death were calculated.

[10] = test system: colorectal cancer cell line HCT116; assay: Cell cycle analysis by flow cytometry; assay type: cell-based, human
Procedure: In order to identify the action mechanism of lenziamide A showing an excellent cell proliferation inhibiting efficacy, cells of colorectal cancer cell line HCT116 were treated with lenziamide A at a concentration of 0 μM, 1.25 μM, 2.5 μM, or […]. The cell cycle control effect of lenziamide A was confirmed by using flow cytometry method, and the results are shown in FIGS. 2A and 2B.

[11] = test system: HCT116-5-FU resistant cell line xenograft; assay: HCT116-5-FU resistant xenograft animal model; assay type: in vivo, BALB/c mice; details: 10 mg/kg intravenous
Procedure: HCT116-5-FU resistant cell line prepared as described in Example 2-5 was diluted to a concentration of […] in RPMI medium, and 0.2 mL of the diluted cell line was injected subcutaneously to right flanks of BALB/c mice (5-week old, male). When the size of the tumor reached about 100 mm^3, groups were randomly divided based on the size of the tumor.
Lenziamide A (10 mg/body weight kg), 5-FU (30 mg/body weight kg), or a combination thereof (10 mg/body weight kg of lenziamide A+30 mg/body weight kg of 5-FU) was administered by intravenous injection to resistant cancer cell line injected xenograft animal models. A mixture mixed at a ratio of dimethyl sulfoxide: Cremophor: saline=0.5:0.5:9 was used as a negative control. Volumes of tumor (mm^3) and body weights of the xenograft animal models (g) were measured from the first day of administration, and the results are shown in FIGS. 5A and 5B.

[12] = test system: metastatic colorectal cancer cell line (L-2); assay: Expression of metastasis related biomarkers; assay type: cell-based; details: L-2 cells, 0 μM to 4 μM
Procedure: of non-metastatic cancer, thereby making it very difficult to treat it. A colorectal cancer cell line (C-1) was injected into appendix of laboratory mice and left for 6 weeks to artificially induce growth and metastasis of tumor, and colorectal cancer cells metastasized to the liver (L-2) were isolated and cultured. After administering 0 μM to 4 μM of lenziamide A to colorectal cancer cell line (C-1) and metastatic colorectal cancer cell line (L-2) obtained above, expression of biomarkers related to metastasis of cancer was identified by reverse transcription polymerase chain reaction (RT-PCR), and the results are shown in FIG. 6A.

[13] = test system: HCT116 colorectal cancer xenograft; assay: HCT116 xenograft animal model; assay type: in vivo; details: 10, 30 mg/kg intravenous
Procedure: Cells of HCT116, a human-derived colorectal cancer cell line, were diluted to a concentration of 5×10^6 units/mL in RPMI (Roswell Park Memorial Institute) medium, and 0.2 mL of the diluted cells was injected subcutaneously to right flank of BALB/c mice (5-week old, male). When the size of the tumor reached about 100 mm^3, groups were randomly divided based on the size of the tumor.
Lenziamide A was administered by intravenous injection at a dose of 10 mg/body weight kg or 30 mg/body weight kg to the prepared xenograft animal models. A mixture mixed at a ratio of dimethyl sulfoxide: Cremophor: saline=0.5:0.5:9 was used as a negative control, and irinotecan was used as a positive control. Volume of the tumor (mm^3), body weight of the xenograft animal model (g), and final weight of the tumor (g) were measured from the first day of administration, and the results are shown in FIGS. 4A to 4C.

[14] = test system: metastatic colorectal cancer cell line (L-2); assay: Metastatic colorectal cancer cell (L-2) injected animal model; assay type: in vivo, laboratory mice; details: 5 mg/kg or 15 mg/kg
Procedure: As described in Example 2-7 (1), a metastatic colorectal cancer cell line (L-2) was re-injected into appendix of laboratory mice to form tumor, and lenziamide A was administered at a dose of 5 mg/body weight kg or 15 mg/body weight kg. A mixture mixed at a ratio of dimethyl sulfoxide: Cremophor: saline=0.5:0.5:9 was used as a negative control. 10 mg/body weight kg of irinotecan was administered as a positive control. Volumes of tumor (mm3) and body weights of the xenograft animal model (g) were measured from the first day of administration, and the results are shown in FIGS. 6B and 6C.

[15] = Homo sapiens, read-out: IC50 HCT116-5-FU
[16] = Homo sapiens, HCT-116, read-out: IC50 HCT116

SMILES	Fold change (HCT116-5-FU/HCT116) [1]	IC50 [1, 15]	IC50 [2, 16]	IC50 ([3]; 72 h)	IC50 ([4]; 72 h)	IC50 ([2]; 72 h)	IC50 ([5]; 72 h)	IC50 ([6]; 72 h)	IC50 ([7]; 72 h)	IC50 ([8]; 72 h)	other results
O=c1[nH]cc(F)c(=O)[nH]1 [5-fluorouracil]	8.70	36700 nM	4220 nM	–	–	–	–	–	–	–	–
COc1cc([C@@H]2c3cc4c(cc3[C@@H](O[C@@H]3O[C@@H]5CO[C@@H](C)O[C@H]5[C@H](O)[C@H]3O)[C@H]3COC(=O)[C@H]23)OCO4)cc(OC)c1O [Etoposide, reference compound]	2.53	1920 nM	760 nM	–	–	–	–	–	–	–	IC50 ([3]; Homo sapiens, A549, 72 h, read-out: IC50 A549): 590 nM; IC50 ([4]; Homo sapiens, MRC5, 72 h, read-out: IC50 MRC-5): 11600 nM; IC50 ([2]; Homo sapiens, HCT-116, 72 h, read-out: IC50 HCT116): 1860 nM; IC50 ([5]; Homo sapiens, SNU-638, 72 h, read-out: IC50 SNU638): 480 nM; IC50 ([6]; Homo sapiens, MDA-MB-231, 72 h, read-out: IC50 MDA-MB-231): 3360 nM; IC50 ([7]; Homo sapiens, SK-HEP1, 72 h, read-out: IC50 SK-HEP-1): 450 nM; IC50 ([8]; Homo sapiens, K562, 72 h, read-out: IC50 K562): 760 nM
CCc1c2c(nc3ccc(OC(=O)N4CCC(N5CCCCC5)CC4)cc13)-c1cc3c(c(=O)n1C2)COC(=O)[C@]3(O)CC [Irinotecan]	3.72	5650 nM	1520 nM	–	–	–	–	–	–	–	–
CCC(C)C1NC(=O)C(Cc2ccccc2)N(C)C(=O)C2CCCNN2C(=O)C(CO)N(C)C(=O)C(CC(C)C)NC(=O)C(Cc2ccccc2)N(C)C(=O)C(C)NC(=O)C(C(C)C)N(C)C(=O)CCNC(=O)C(C)N(C)C1=O (stereo not shown) [Lenziamide A] (cyclo([X1][NMeF]I[NMeA][βAla][NMeV]A[NMeF]L[NMeS]); configuration not given here)	–	–	–	800 nM	> 20000 nM	370 nM	440 nM	620 nM	390 nM	770 nM	early apoptosis cell population ([9]; 5 μM): about 20.37%; late apoptosis cell population ([9]; 5 μM): 51.40%; apoptosis ([9]; different concentrations of lenziamide A): apoptosis increased dependent on the concentration; sub G1 cell accumulation (cell death) ([10]; after G2/M arrest, high concentration): followed by sub G1 cell accumulation; G2/M cell cycle arrest ([10]; until 24 hours after treatment, 0-5 μM): G2/M cell cycle arrest was increased; body weight [11]: without significant weight loss; growth of resistant tumor [11]: effectively inhibited growth of resistant tumor; expression of E-cadherin [12]: increased; expression of N-Cadherin and vimentin [12]: decreased; growth of HCT116-5-FU resistant cell line [1]: effectively inhibited growth of HCT116-5-FU resistant cell line; IC50 ([1]; 72 h): 420 nM; Fold change (HCT116-5-FU/HCT116) ([1]; IC50 of HCT116-5-FU with respect to IC50 of HCT116): 1.16; IC50 [2]: 360 nM; tumor growth (volume, final weight) [13]: concentration-dependent tumor growth inhibitory effect; body weight (toxicity) ([13]; during administration period): no significant weight decrease; growth of tumor in the appendix [14]: also inhibited; metastasis of the tumor to other organs [14]: effectively inhibited
CCC(C)C1NC(=O)C(Cc2c[nH]c3ccccc23)N(C)C(=O)C2CCCNN2C(=O)C(CO)N(C)C(=O)C(CC(C)C)NC(C)C(Cc2ccccc2)N(C)C(=O)C(C)NC(=O)C(C(C)C)N(C)C(=O)CCNC(=O)C(C)N(C)C1=O (stereo not shown) [Lenziamide B]	–	–	–	430 nM	> 20000 nM	200 nM	250 nM	230 nM	220 nM	360 nM	–
CC(C)CC1NC(C)C(Cc2ccccc2)N(C)C(=O)C(C)NC(=O)C(C(C)C)N(C)C(=O)CCNC(=O)C(C)N(C)C(=O)C(C(C)C)NC(=O)C(Cc2ccccc2)N(C)C(=O)C2CCCNN2C(=O)C(CO)N(C)C1=O (stereo not shown) [Lenziamide C]	–	–	–	760 nM	> 20000 nM	520 nM	430 nM	960 nM	530 nM	650 nM	–
CC(C)CC1NC(C)C(Cc2ccccc2)N(C)C(=O)C(C)NC(=O)C(C(C)C)N(C)C(=O)CCNC(=O)C(C)NC(=O)C(C(C)C)NC(=O)C(Cc2ccccc2)N(C)C(=O)C2CCCNN2C(=O)C(CO)N(C)C1=O (stereo not shown) [Lenziamide E]	–	–	–	1780 nM	> 20000 nM	1010 nM	1320 nM	1590 nM	960 nM	1210 nM	–
